According to US9884813B1, “Pharmaceutically acceptable salts of B-guanidinopropionic acid with improved properties and uses thereof” (Rgenix, Inc., priority 2017, dated 2018):
“Also recorded” adds a separate entry of the source. Where two headings read alike, the source gives them in different places.

Legend:
Assay type in all cases: physicochemical
[1] = Solid form stability under stressed conditions (wet, dry, high humidity) by XRPD; settings: for Dry_XRPD pattern: dry (45° C. under vacuum); for Humid_XRPD pattern: high humidity (RH >95%); for Wet_XRPD pattern: wet
Procedure: The solid form stability of each salt was studied by XRPD under stressed conditions: wet, dry (45° C. under vacuum) and high humidity (RH >95%).

[2] = Solid form stability at 40° C. and 75% humidity; settings: 40° C. and 75% RH for seven days
Procedure: Solid form stability studies of β-GPA fumarate, succinate, and oxalate were carried out at 40° C. and 75% RH for seven days. Around 30 mg of the salts were placed in 4 mL vials which were placed in a saturated solution of sodium chloride (2 mL) with lids closed at 40° C. […]

Bulk and tapped density = test: Bulk and tapped density
Procedure: The bulk density of β-GPA oxalate (Pattern 18 B), succinate (Pattern 15A), and fumarate (Pattern 7A) were determined by pouring in a known amount of salt (g) into a measuring cylinder. The volume (Vi) occupied by the salt was recorded and the bulk density (ρB) was determined using equation 1. ρB=g/Vi (1)
The tapped densities of the salts were determined using a Tap density analyzer. A known amount of salt was poured (g) into a measuring cylinder and the initial volume was recorded and tapped using a Tap density analyzer. The final volume (Vf) after tapping was recorded and the tapped density (ρT) was calculated by using equation 2. ρT=g/Vf (2)

[3] = Flowability measurement using Hanson Flodex unit; settings: for flow character from the experimental data: summary of density and Flodex measurements
Source text: Method: A cylindrical vessel is secured to the stand and above that a funnel is also secured such that the bottom of the funnel is close to the vessel. A powder load of ≈50-60 g is then poured through the funnel into the middle of the cylinder. The lever device is pulled to open the hole in the disk quickly and without vibration. If a powder slowly flows through the small-diameter holes, leaving a cavity shaped like an upside-down, truncated cone, the test is considered positive. If a powder flocculates in bulk and falls abruptly, forming a cylindrical cavity, the test is considered negative. […] If the experiment is negative, the powder is tested again with a disk having a larger hole.

[4] = Solid form stability of salts in different solvents (slurry, XRPD); settings: 48 hours, room temperature
Procedure: Three salts were studied for solid form stability in water (disproportionation test), methanol, acetonitrile, and acetone:water (9:1) for 48 hours at room temperature.

[5] = Carr's index and Hausner ratio (predicted flowability)
Source text: The flow properties of β-GPA are sub-optimal. The bulk density is 0.389 g/cc and the tapped density is 0.627 g/cc. These measurements can be used to calculate the Carr's index and Hausner ratio for a substance. The Carr's index and Hausner ratio are indicators of flowability of a powder. As known in the art, e.g., as described in Carr R. L. Chem. Eng. 1965, 72, 163-168, the relationship to flowability of a powder to the Carr's index and Hausner ratio is based on the scale shown in Table 6 below.
Carr's index or Carr's compressibility index (C) is an indication of the compressibility of a powder. It can be calculated using the equation below: Carr's index (C)=100(Vi−Vf)/Vi (3) A Carr's index greater than 25 is considered to be an indication of poor flowability while a value below 15 is an indication of good flowability.
The Hausner ratio is a number that is correlated to the flowability of a powder or granular material. It is calculated by using the equation below: Hausner ratio=Vi/Vf (4)

[6] = Dynamic vapor sorption (DVS) with XRPD of the post-DVS sample; settings: for solid form by XRPD after the DVS experiment: post DVS sample
Procedure: Samples were analyzed using an Aquadyne DVS-2 gravimetric water sorption analyzer. The relative humidity was adjusted between 2-95% and the weight of the sample was continuously monitored and recorded.
[…]: β-GPA maleate (1:1) Form II, β-GPA fumarate (1:1), β-GPA maleate (2:1), β-GPA succinate (2:1) and β-GPA oxalate (1:1) were analyzed by DVS experiment followed by XRPD analysis of the sample at the end of the experiment.
Sample 2162-64-1 was analyzed by DVS in triplicate and the post DVS samples were characterized by XRPD to identify the form at the end of the experiment.

[7] = Carr's index and Hausner ratio (predicted flowability); settings: Table 18, scale of Table 17
[8] = water (disproportionation test)
[9] = calculated from bulk and tapped volumes

Structure (SMILES): CS(=O)(=O)O.N=C(N)NCCC(=O)O [β-GPA methanesulfonate]
- Dry_XRPD pattern [1]: Pattern 19A
- stability in dry conditions [1]: stable
- Humid_XRPD pattern [1]: Deliquesce
- stability under high humidity conditions [1]: deliquesced
- Wet_XRPD pattern [1]: Pattern 19A

Structure (SMILES): N=C(N)NCCC(=O)O.O=C(O)C(=O)O [β-GPA oxalate (1:1)]
- solid form stability (XRPD) [2]: retained their original XRPD pattern; also recorded: stable
- solid form stability (XRPD) ([2]; listed as 1:1 oxalate salt): stable
- Bulk density (Bulk and tapped density): 0.505 g/cc
- Tapped density (Bulk and tapped density): 0.623 g/cc
- Did solid pass? ([3]; Disc pore size 12 mm): No
- Did solid pass? ([3]; Disc pore size 18 mm): No
- Did solid pass? ([3]; Disc pore size 24 mm): No
- Did solid pass? ([3]; Disc pore size 26 mm): Yes
- Did solid pass? ([3]; Disc pore size 28 mm): Yes
- Did solid pass? ([3]; Disc pore size 30 mm): Yes
- flow character from the experimental data [3]: fair
- XRPD pattern after slurry ([4]; acetone:water (9:1)): retain their XRPD pattern
- XRPD pattern after slurry ([4]; acetonitrile): retain their XRPD pattern
- XRPD pattern after slurry ([4]; methanol): retain their XRPD pattern
- XRPD pattern after slurry [4, 8]: retained their XRPD patterns
- XRPD pattern after slurry ([4]; water (disproportionation test), listed as 1:1 β-GPA oxalate): retained their XRPD pattern
- Carr's index [5, 9]: 18.7
- Hausner ratio [5, 9]: 1.23
- Flow character ([5]; predicted, scale of Table 6 (Carr's index)): Fair (16-20)
- Dry_XRPD pattern [1]: Pattern 18A
- stability in dry conditions [1]: stable
- Humid_XRPD pattern [1]: Pattern 18A
- stability under high humidity conditions [1]: stable
- Wet_XRPD pattern [1]: Pattern 18A
- solid form by XRPD after the DVS experiment [6]: retained their XRPD
- solid form by XRPD after the DVS experiment ([6]; listed as 1:1 oxalate salt): no form change
- solid form by XRPD after the DVS experiment ([6]; listed as 1:1 β-GPA oxalate): no form change
- Flow character [7]: Fair (16-20)

Structure (SMILES): N=C(N)NCCC(=O)O.O=C(O)/C=C/C(=O)O [β-GPA fumarate (1:1)]
- solid form stability (XRPD) ([2]; listed as 1:1 fumarate salt): stable
- XRPD pattern after slurry ([4]; acetone:water (9:1)): retain their XRPD pattern
- XRPD pattern after slurry ([4]; acetonitrile): retain their XRPD pattern
- XRPD pattern after slurry ([4]; methanol): retain their XRPD pattern
- XRPD pattern after slurry ([4]; water (disproportionation test), listed as 1:1 β-GPA fumarate): retained their XRPD pattern
- Dry_XRPD pattern [1]: Pattern 7A
- stability in dry conditions [1]: stable
- Humid_XRPD pattern [1]: Pattern 7A
- stability under high humidity conditions [1]: stable
- Wet_XRPD pattern [1]: Pattern 7A
- moisture uptake during the DVS experiment ([6]; listed as 1:1 β-GPA fumarate): < 1%
- solid form by XRPD after the DVS experiment ([6]; listed as 1:1 fumarate salt): no form change
- solid form by XRPD after the DVS experiment ([6]; listed as 1:1 β-GPA fumarate): presence of β-GPA peaks along with Pattern 7A

Structure (SMILES): N=C(N)NCCC(=O)O.O=P(O)(O)O [β-GPA phosphate]
- Dry_XRPD pattern [1]: Pattern 4A
- stability in dry conditions [1]: stable
- Humid_XRPD pattern [1]: Deliquesce
- stability under high humidity conditions [1]: deliquesced
- Wet_XRPD pattern [1]: Pattern 4A

Structure (SMILES): N=C(N)NCCC(=O)O.O=C(O)/C=C\C(=O)O [β-GPA maleate (1:1) Form I]
- Dry_XRPD pattern [1]: Pattern 6A
- stability in dry conditions [1]: stable
- Humid_XRPD pattern [1]: Pattern 6A
- stability under high humidity conditions [1]: stable
- Wet_XRPD pattern [1]: Pattern 6A

Structure (SMILES): N=C(N)NCCC(=O)O.O=C(O)/C=C/C(=O)O [β-GPA fumarate]
- solid form stability (XRPD) [2]: retained their original XRPD pattern; also recorded: stable
- flow character from the experimental data [3]: excellent
- XRPD pattern after slurry [4, 8]: retained their XRPD patterns
- solid form by XRPD after the DVS experiment [6]: retained their XRPD; also recorded: presence of two peaks from the β-GPA

Structure (SMILES): CCS(=O)(=O)O.N=C(N)NCCC(=O)O [ethanesulfonic acid salt]
- stability in dry conditions [1]: stable
- stability under high humidity conditions [1]: deliquesced

Structure (SMILES): Cl.NC(N)=NCCC(=O)O [β-GPA hydrochloride]
- Dry_XRPD pattern [1]: Pattern 1A
- stability in dry conditions [1]: stable
- Humid_XRPD pattern [1]: Deliquesce
- stability under high humidity conditions [1]: deliquesced
- Wet_XRPD pattern [1]: Pattern 1A

Structure (SMILES): N=C(N)NCCC(=O)O.O=C(O)C[C@H](O)C(=O)O [β-GPA malate (1:1)]
- Dry_XRPD pattern [1]: Pattern 12A
- stability in dry conditions [1]: stable
- Humid_XRPD pattern [1]: Deliquesce
- stability under high humidity conditions [1]: deliquesced
- Wet_XRPD pattern [1]: Pattern 12A

Structure (SMILES): N=C(N)NCCC(=O)O.O=C(O)/C=C\C(=O)O [β-GPA maleate (1:1) Form II]
- XRPD pattern after slurry ([4]; acetone:water (9:1)): matched with the original pattern of the salt (Pattern 6D) along with some additional peaks
- XRPD pattern after slurry ([4]; acetonitrile): retain its XRPD pattern
- XRPD pattern after slurry ([4]; methanol): retain its XRPD pattern
- XRPD pattern after slurry [4, 8]: retained their XRPD patterns
- Dry_XRPD pattern [1]: Pattern 6D
- Humid_XRPD pattern [1]: Pattern 6D
- Wet_XRPD pattern [1]: Pattern 6D
- moisture uptake during the DVS experiment [6]: ~25%
- moisture uptake ([6]; at around 95% RH): around 25%
- solid form by XRPD after the DVS experiment [6]: no form change

Structure (SMILES): N=C(N)NCCC(=O)O.N=C(N)NCCC(=O)O.O=C(O)/C=C\C(=O)O [β-GPA maleate (2:1)]
- Dry_XRPD pattern [1]: Pattern 6C
- Humid_XRPD pattern [1]: Pattern 6B
- Wet_XRPD pattern [1]: Pattern 6B
